Key:
[1] = system: HIV-1 SDM strain G140S-Q148H; assay: cell-based HIV-1 replication assay in MT4-LTR-EGFP cells, G140S-Q148H mutant; details: fold change in activity against G140S-Q148H mutant compared to wild type HIV
Description: (§1) MT4-LTR-enhanced green fluorescent protein (EGFP) cells were obtained by transfecting MT4 cells with a selectable construct encompassing the coding sequences for the HIV LTR as a promoter for the expression of EGFP and subsequent selection of permanently transfected cells. MT4-cytomegalovirus (CMV)-EGFP cells were obtained by selection for permanently transformed MT4 cells with a CMV-EGFP reporter gene. Cell lines were maintained in RPMI 1640 medium supplemented with 10% heat-inactivated fetal calf serum, 2 mM L-glutamine, 0.1% NaHCO3, and antibiotics (0.02% gentamicin and 0.8% G418) and incubated in a humidified incubator with a 5% CO2 atmosphere at 37° C.
(§2) N155H and Q148R mutant Integrase coding sequences were constructed in the pUC19-5′HXB2D vector (XbaI-SalI fragment of pHXB2D), containing the HIV-1 clone HXB2D IN coding sequence, by using a QuikChange site-directed mutagenesis kit (Stratagene, La Jolla, Calif.) and HPLC-purified primers (Genset Oligos, La Jolla, Calif.). Altered plasmid sequences were confirmed by dideoxyribose sequencing. For generation of site-directed mutant (SDM) virus stocks, MT4 cells were subcultured at a density of 250,000 cells/ml on the day before transfection. Cells were pelleted and resuspended in phosphate-buffered saline at a concentration of 3.1×10^6 cells/ml. A 0.8-ml portion ([…]) was used for each transfection. Transfections were performed with a Bio-Rad Gene Pulser (Bio-Rad, Hercules, Calif.) with 0.4-cm electrode cuvettes (Bio-Rad). Cells were electroporated with 10 μg of SalI-linearized pUC19-3′HXB2D (SalI-XbaI fragment of pHXB2D) and 5 μg of SalI-digested SDM at 250 μF and 300 V, followed by a 30-min incubation at room temperature. Ten ml of fresh culture medium was then added to the suspension of transfected cells, and incubation was performed at 37° C. in a humidified atmosphere with 5% CO2. Cell cultures were monitored for the appearance of cytopathic effect (CPE).
(§3) The inhibitory antiviral activity of different compounds was determined in a cell-based HIV-1 replication assay. MT4-LTR-EGFP cells (150,000 cells/ml) were infected with HIV-1 (IIIB or SDM strains Q148R, N155H, or G140S-Q148H; multiplicity of infection [MOI] of 0.0025) in the presence or absence of inhibitor. After 3 days of incubation, the inhibition of HIV replication was quantified by measuring EGFP fluorescence, and expressed as the compound concentration required for 50% inhibition of HIV-1 replication in cell culture (EC50).

[2] = system: HIV-1 SDM strain Q148R; assay: cell-based HIV-1 replication assay in MT4-LTR-EGFP cells, Q148R mutant; details: fold change in activity against Q148R mutant compared to wild type HIV
Description: as §1, §2, §3

[3] = system: HIV-1 LAI (IIIB); assay: antiviral assay in the presence of 50% human serum; format: cell-based; details: MT-4-LTR-EGFP cells, 4 days, resazurin cell viability
Experimental: For the antiviral assay in the presence of 50% human serum, MT-4-LTR-EGFP cells were infected with HIV-1 LAI (IIIB) at a MOI of 0.001 to 0.01 CCID50/cell in RPMI1640 medium. Following 1 h of incubation, cells were washed and plated into a 96-well plate containing serial dilutions of test compound in the presence of 10% fetal calf serum or 50% human serum. After 4 days of incubation, the EC50 in the presence of 50% human serum (EC50/HS) was determined by a cell viability assay using resazurin (as described by Fields, R. D., and M. V. Lancaster (1993) Am. Biotechnol. Lab. 11:48-50).

[4] = system: HIV-1 SDM strain N155H; assay: cell-based HIV-1 replication assay in MT4-LTR-EGFP cells, N155H mutant; details: fold change in activity against N155H mutant compared to wild type HIV
Description: as §1, §2, §3

CCN1C[C@H](C)n2c(c(O)c3c(=O)n4nc(c32)N2CCN(CCCCCOc3cc(F)ccc3C4)S2(=O)=O)C1=O [Compound 2a]
FC-G140S-Q148H [1]: 3.3 | FC-Q148R [2]: 0.7 | EC50 [3]: 682 nM | FC-N155H [4]: 25.3

CCN1C[C@H](C)n2c(c(O)c3c(=O)n4nc(c32)N2CCN(CCCCCOc3cc(F)ccc3C4)S2(=O)=O)C1=O [Compound 2b]
FC-G140S-Q148H [1]: 6.2 | FC-Q148R [2]: 0.9 | EC50 [3]: 8 nM | FC-N155H [4]: 8.0

CCN1C[C@H](C)n2c(c(O)c3c(=O)n4nc(c32)N(C)S(=O)(=O)CCCOc2cc(F)ccc2C4)C1=O [Compound 8]
FC-G140S-Q148H [1]: 11.3 | FC-Q148R [2]: 3.3 | EC50 [3]: 10 nM | FC-N155H [4]: 11.7

CCN1C[C@H](C)n2c(c(O)c3c(=O)n4nc(c32)N(C)S(=O)(=O)[C@@H](C)CCCCOc2cc(F)ccc2C4)C1=O [Compound 9]
FC-G140S-Q148H [1]: 1.2 | FC-Q148R [2]: 0.4 | EC50 [3]: 1930 nM | FC-N155H [4]: 2.0

CCN1C[C@H](C)n2c(c(O)c3c(=O)n4nc(c32)N(C)S(=O)(=O)[C@H](C)CCCCOc2cc(F)ccc2C4)C1=O [Compound 10]
FC-G140S-Q148H [1]: 1.2 | FC-Q148R [2]: 0.5 | EC50 [3]: 17 nM | FC-N155H [4]: 2.8

CCN1C[C@H](C)n2c(c(O)c3c(=O)n4nc(c32)N(CC)S(=O)(=O)CCCCOc2cc(F)ccc2C4)C1=O [Compound 11]
FC-G140S-Q148H [1]: 14.3 | FC-Q148R [2]: 2.1 | EC50 [3]: 9 nM | FC-N155H [4]: 5.1

CCN1C[C@H](C)n2c(c(O)c3c(=O)n4nc(c32)N(C2CC2)S(=O)(=O)CCCCOc2cc(F)ccc2C4)C1=O [Compound 12]
FC-G140S-Q148H [1]: 5.1 | FC-Q148R [2]: 0.7 | EC50 [3]: 13 nM | FC-N155H [4]: 3.5

CCN1c2nn(c(=O)c3c(O)c4n(c23)[C@@H](C)CN(C(C)C)C4=O)Cc2ccc(F)cc2OCCCCS1(=O)=O [Compound 13]
FC-G140S-Q148H [1]: 2.6 | FC-Q148R [2]: 0.7 | EC50 [3]: 11 nM | FC-N155H [4]: 3.5

CC(C)N1C[C@H](C)n2c(c(O)c3c(=O)n4nc(c32)N(C2CC2)S(=O)(=O)CCCCOc2cc(F)ccc2C4)C1=O [Compound 14]
FC-G140S-Q148H [1]: 4.3 | FC-Q148R [2]: 1.0 | EC50 [3]: 18 nM | FC-N155H [4]: 3.5

CCN1C[C@H](C)n2c(c(O)c3c(=O)n4nc(c32)N(CC)S(=O)(=O)CCCCCOc2cc(F)ccc2C4)C1=O [Compound 15]
FC-G140S-Q148H [1]: 1.4 | FC-Q148R [2]: 0.5 | EC50 [3]: 33 nM | FC-N155H [4]: 3.4

CCN1C[C@H](C)n2c(c(O)c3c(=O)n4nc(c32)N(C2CC2)S(=O)(=O)CCCCCOc2cc(F)ccc2C4)C1=O [Compound 16]
FC-G140S-Q148H [1]: 1.3 | FC-Q148R [2]: 0.6 | EC50 [3]: 43 nM | FC-N155H [4]: 3.5

CCN1C[C@H](C)n2c(c(O)c3c(=O)n4nc(c32)N(C)S(=O)(=O)CCCCOc2cc(F)c(Cl)cc2C4)C1=O [Compound 17]
FC-G140S-Q148H [1]: 1.9 | FC-Q148R [2]: 0.6 | EC50 [3]: 24 nM | FC-N155H [4]: 4.7

CCN1C[C@H](C)n2c(c(O)c3c(=O)n4nc(c32)N(C)S(=O)(=O)CCCCCOc2cc(F)c(Cl)cc2C4)C1=O [Compound 18]
FC-G140S-Q148H [1]: 1.8 | FC-Q148R [2]: 0.8 | EC50 [3]: 47 nM | FC-N155H [4]: 4.7

CCN1C[C@H](C)n2c(c(O)c3c(=O)n4nc(c32)N(C)S(=O)(=O)CCCCOc2cc(F)c(F)cc2C4)C1=O [Compound 19]
FC-G140S-Q148H [1]: 3.6 | FC-Q148R [2]: 1.1 | EC50 [3]: 8 nM | FC-N155H [4]: 4.9

CCN1C[C@H](C)n2c(c(O)c3c(=O)n4nc(c32)N(C)S(=O)(=O)CCCCCOc2cc(F)c(F)cc2C4)C1=O [Compound 20]
FC-G140S-Q148H [1]: 1.5 | FC-Q148R [2]: 0.6 | EC50 [3]: 17 nM | FC-N155H [4]: 4.8

CCN1C[C@H](C)n2c(c(O)c3c(=O)n4nc(c32)N(C)S(=O)(=O)CCCCCNC(=O)c2cc(F)ccc2C4)C1=O [Compound 21]
FC-G140S-Q148H [1]: 1.9 | FC-Q148R [2]: 0.6 | EC50 [3]: 54 nM | FC-N155H [4]: 6.6

CCN1C[C@H](C)n2c(c(O)c3c(=O)n4nc(c32)N(C)S(=O)(=O)CCCNC(=O)c2cc(F)ccc2C4)C1=O [Compound 23]
FC-G140S-Q148H [1]: 2.1 | FC-Q148R [2]: 0.7 | EC50 [3]: 7 nM | FC-N155H [4]: 9.6

CCN1C[C@H](C)n2c(c(O)c3c(=O)n4nc(c32)C(=O)NCCCCOc2cc(F)ccc2C4)C1=O [Compound 24]
FC-G140S-Q148H [1]: 179.1 | FC-Q148R [2]: 4.3 | EC50 [3]: 11 nM | FC-N155H [4]: 10.4

CCN1C[C@H](C)n2c(c(O)c3c(=O)n4nc(c32)C(=O)NCCCCCOc2cc(Cl)ccc2C4)C1=O [Compound 25]
FC-G140S-Q148H [1]: 3.7 | FC-Q148R [2]: 0.3 | EC50 [3]: 138 nM | FC-N155H [4]: 3.5

CCN1C[C@H](C)n2c(c(O)c3c(=O)n4nc(c32)C(=O)NCCCCCOc2cc(F)c(Cl)cc2C4)C1=O [Compound 26]
FC-G140S-Q148H [1]: 4.1 | FC-Q148R [2]: 0.8 | EC50 [3]: 32 nM | FC-N155H [4]: 4.3

CCN1CCn2c(c(O)c3c(=O)n4nc(c32)C(=O)NCCCCCOc2cc(F)ccc2C4)C1=O [Compound 27]
FC-G140S-Q148H [1]: 668.8 | FC-Q148R [2]: 3.0 | EC50 [3]: 5 nM | FC-N155H [4]: 8.6

C[C@H]1CN(C)C(=O)c2c(O)c3c(=O)n4nc(c3n21)C(=O)NCCCCCOc1cc(F)ccc1C4 [Compound 28]
FC-G140S-Q148H [1]: 17.0 | FC-Q148R [2]: 0.9 | EC50 [3]: 14 nM | FC-N155H [4]: 4.5

CC(C)N1C[C@H](C)n2c(c(O)c3c(=O)n4nc(c32)C(=O)NCCCCCOc2cc(F)ccc2C4)C1=O [Compound 29]
FC-G140S-Q148H [1]: 2.2 | FC-Q148R [2]: 0.4 | EC50 [3]: 19 nM | FC-N155H [4]: 3.8

CCN1C[C@H](C)n2c(c(O)c3c(=O)n4nc(c32)C(=O)N(C)CCCCOc2cc(F)ccc2C4)C1=O [Compound 30]
FC-G140S-Q148H [1]: 572.0 | FC-Q148R [2]: 41.1 | EC50 [3]: 28 nM | FC-N155H [4]: 410.4

CCN1C[C@H](C)n2c(c(O)c3c(=O)n4nc(c32)C(=O)N(C)CCCCCOc2cc(F)c(Cl)cc2C4)C1=O [Compound 32]
FC-G140S-Q148H [1]: 2.6 | FC-Q148R [2]: 0.3 | EC50 [3]: 77 nM | FC-N155H [4]: 4.3
